Measurements published in patent publication US20240100023A1, “Compositions and Methods For Treating Spinal Cord Injuries” (priority 2020, published 2024).

Columns and labels:
Rat (Wistar) = assay: Novel object recognition memory; type: in vivo; conditions: for Minimum Effective Dose, novel object recognition memory: Rat (Wistar), IP
Experimental: Additional Novel Object Recognition behavioral model studies were conducted to further elucidate the SCI recovery activities of CX717 and CX1739. Rats were habituated to a test box for two 5-minute sessions on consecutive days. Each test session consisted of two phases: in the first phase (“sample period”), two identical objects (A1 and A2) were placed in the far corners of the box, and the rats were allowed to explore the objects. After a 24 hour delay, rats were re-introduced to the arena (“test period”) now containing a third identical copy of the familiar object (A3) and a new object (B), placed in the same locations as in the first phase, and the total time spent exploring each of the objects was determined over a 3-min duration. For CX717 drug treatment, rats were dosed 30 min prior to each sample session with either 0.1, 0.3, 1.0 mg/kg CX717 (p.o.); vehicle (0.5% methylcellulose, p.o.) or 0.9 mg/kg Aricept (E2020, i.p.). The exploration times for the full 3-min were calculated and expressed as the discrimination index, d1, defined as the absolute difference in time spent exploring the novel object minus the familiar object.
For CX1739 Male Wistar rats were assessed for cognitive ability in a test apparatus comprising an open-field arena placed in a sound-attenuated room under dimmed lighting. Rat exploration and activity were captured by a digital camera, and viewed on a monitor in an adjoining area. Following a 5-minute habituation period, each animal was placed in the test arena in the presence of two identical objects (plastic shapes) and the time spent actively exploring the objects during a 5-minute test period (T1) was recorded. After 24 hours, each rat was again placed in the test arena for 5 minutes (T2) in the presence of one familiar object and one novel object, and the time spent exploring both objects was recorded. The Recognition Index was calculated as the percentage of total exploration time spent exploring the novel object during the retention session (T2), which provides the primary measure of cognitive function in this assay.
The Novel object recognition (NOR) paradigm is a rodent model of recognition learning memory retrieval and takes advantage of the spontaneous behavior of rodents to investigate a novel object compared with a familiar object. NOR has been employed extensively to indicate cognition-enhancing properties of drug candidates, predictive of therapeutic efficacy of positively-assaying drugs for reducing SCI symptoms in humans.

Mouse (CD1) = assay: Amphetamine-stimulated locomotion in mice; type: in vivo; conditions: for Minimum Effective Dose, amphetamine-stimulated locomotion: Mouse (CD1), IP; for Dose producing a significant decrease in amphetamine-stimulated locomotion: mice, amphetamine 2 mg/kg i.p.
Experimental: Effects of exemplary low impact ampakines were also evaluated in mice for the ability to inhibit amphetamine-stimulated locomotor activity. Mice were placed in the locomotor chamber for 20 min to habituate, removed, injected with either vehicle or SCI recovery ampakine (CX717), and 5 min later injected with 2 mg/kg i.p. Amphetamine Mice were returned to the locomotor chamber 10 min later, and their activity measured for a further 15 min. In related studies, adult male CD1 mice or male Sprague-Dawley rats were acclimated in a test chamber for 20 minutes removed and dosed i.p. (mice) or orally (rats) with CX1739, vehicle, or a reference compound. Five (mice) or 10 (rats) were then injected with amphetamine (2 mg/kg, i.p.) or saline vehicle and were returned to the activity test chamber.

[1] = test system: non-selective alpha1 adrenergic receptor; assay: Alpha1 adrenergic receptor radioligand binding; conditions: 100 μM
[2] = test system: evoked fEPSPs in rat hippocampus; assay: Evoked fEPSPs in rat hippocampus in vivo (perforant path / dentate gyrus); parameters: species or system Rat (Long Evans); conditions: for Minimum Effective Dose, effect on evoked fEPSPs in rat hippocampus: Rat (Long Evans), IP; for Effect on evoked fEPSP / EPSP amplitude: anesthetized rat, intraperitoneal
Experimental: Further selection and characterization of ampakines to identify SCI recovery drugs useful within the invention involved electrophysiological studies (to measure “electrically evoked field excitatory postsynaptic potentials” (fEPSPs) for test compounds). CX717 and CX1739 were tested for their ability to facilitate synaptic responses in vivo in anesthetized animals following peripheral administration. Stimulating and recording electrodes were inserted into the perforant path and dentate gyrus of the hippocampus, respectively. Electrically evoked field excitatory postsynaptic responses (fEPSPs) were measured before administration of ampakines, and for approximately 2 hours following intraperitoneal administration of ampakines.
Electrically evoked field excitatory postsynaptic potentials (fEPSPs) were determined for the exemplary test ampakines CX717 and CX1739 as described. […] The response magnitude was related to the plasma levels achieved during the study. […] Both ampakines appear to produce a 25% maximum increase in fEPSP amplitude.

Swiss Webster mice = assay: PTZ proconvulsant test; type: in vivo, Mouse; conditions: 30 mg/kg or less p.o., 30 minutes before PTZ infusion
Experimental: Follow on studies of CX717 and 1739 are continuing, employing additional well-known models for SCI drug efficacy, coupled with a variety of ongoing safety studies. Preliminary safety studies already completed have included a range of toxicity studies focusing on critical convulsant risks widely observed for previously-studied ampakines. Using the well-known PTZ Proconvulsant test, non-GLP safety studies were conducted to examine proconvulsant activity of CX717. Swiss Webster mice (n=12/group) were dosed with CX717 (3, 10 or 30 mg/kg p.o.), vehicle (0.5% methocel p.o.) or a positive control, CGS8216 (10 mg/kg in 70% PEG300: 30% water i.p.). Thirty minutes later, the GABA-A antagonist, pentylenetetrazol (PTZ) was infused in the tail vein until tonic seizures were observed. The time at which the first clonic and tonic seizure was observed was noted and used to determine the dose of PTZ necessary to induce both clonic and tonic seizure.

hippocampal slices = conditions: male, Sprague-Dawley, rat
adult rats = assay: Phrenic burst amplitude after C2 spinal cord hemisection (C2Hx); type: in vivo, Rat; conditions: two weeks after C2Hx, 15 mg/k, i.v.
Source text: In a preliminary examination of the therapeutic potential of ampakines for treating SCI, Wollman and coworkers (2020^16) reported that ampakines may stimulate phrenic activity after incomplete cervical spinal cord injury (SCI) in anesthetized rats. […] To competently address the role of ampakines in alleviating neural and motor function deficits in SCI subjects, Applicants present herein a range of findings, illustrating a diverse array of potent ampakine activities effective for SCI treatment. Among these findings, two low impact ampakines, CX717 and CX1739, potently stimulate diaphragm muscle activation and breathing in freely moving, non-anesthetized rats following SCI. ^16 Wollman L B, Streeter K A, Fusco Gonzalez-Rothi E J, Sandhu M S, Greer J J, Fuller D D. Exp Neural. 2020 December; 334:113 doi: 10.1016/j.expneurol.2020.113465. Epub 2020 September PMID: 32949571.
Exemplifying the efficacy of combining Ampakine SCI treatment with secondary therapeutic intervention, Applicants determined in a predictive animal model that pairing ampakine treatment with a single bout of acute hypoxia (5-min, arterial partial pressure of O2˜50 mmHg) beneficially impacts phrenic bursting, with some rats showing a large facilitation that exceeds the response compared to ampakine-only treated subjects. […]

Row | Compound | Preference for novel object exploration compared with positive control (Rat (Wistar); 0.03 mg/kg) | Minimum Effective Dose, novel object recognition memory (Rat (Wistar)) | Minimum Effective Dose, amphetamine-stimulated locomotion (Mouse (CD1)) | Dose producing a significant decrease in amphetamine-stimulated locomotion (Mouse (CD1)) | Inhibition of reference ligand binding, non-selective alpha1 adrenergic receptor [1] | Minimum Effective Dose, effect on evoked fEPSPs in rat hippocampus [2] | Effect on evoked fEPSP / EPSP amplitude [2] | d1 scores (discrimination index) compared to vehicle (Rat (Wistar); 0.3 mg/kg, 24 hour delay) | Dose of PTZ required to elicit a seizure (proconvulsant activity) (Swiss Webster mice) | Concentration at which seizure activity is seen in hippocampal slices (hippocampal slices) | Increase of contralateral (CL) phrenic burst amplitude (adult rats) | Increase of ipsilateral (IL) phrenic burst amplitude (adult rats)
1 | CN(C(=O)c1ccc2nonc2c1)C1CCOCC1 [CX1739, N-Methyl-N-tetrahydro-2H-pyran-4-yl-[2,1,3]-benzoxadiazole-5-carboxamide] | comparable to that of 3 mg/kg galantamine | 0.03 mg/kg | 30 mg/kg | 30 mg/kg | 67% | 5 mg/kg | substantial increase | – | – | – | – | –
2 | O=C(c1ccc2nonc2c1)N1CCOCC1 [CX717, 1-(benzofurazan-5-ylcarbonyl)morpholine] | – | 0.3 mg/kg | 18 mg/kg | 3 mg/kg | – | 5 mg/kg | long-lasting increase | significant increase | did not decrease the dose of PTZ required to elicit a seizure | > 600 µM | 47±26 % BL | 61±46 % baseline, BL
